We go through 13 compounds from PubChem BioAssay (NCI).

Each structure is given as a SMILES string.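 Grown in 96-well plates, cells were treated for 48 hours with each compound at five concentrations. Insufficient inhibition: endpoint recorded as highest concentration tested. The concentration for 50% growth inhibition is given as GI50. TGI is the concentration that stops growth completely.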

What all share (assay): NCI tumour cell line growth inhibition, 48 h
In test [1] the test system is U251 CNS.
Test [2] deals with HL-60(TB) leukemia.
In test [3] the test system is SK-MEL-5 melanoma.
The test system of test [4] is HT29 colon.
Test [5] relates to KM12 colon.
In test [6] the test system is PC-3 prostate.
Test [7] relates to RPMI-8226 leukemia.
Test [8] has as its system MDA-MB-435.

With `COc1ccc(/C=C/C(=O)c2cc3c(N)c(C(=O)Nc4ccccc4Cl)sc3nc2C)cc1`, the GI50 in test [1] was 3.36 µM; in test [2], 1.74 µM; in test [3], 1.36 µM; in test [4] it was 1.98 µM; in test [5] it was 3.48 µM; in test [6] it was 2.92 µM. Also, in test [7], the GI50 is 5.72 µM. The TGI is 29.6 µM in test [1]; above 50 µM in test [2]; 8.79 µM in test [3]; above 50 µM in test [4]; above 50 µM in test [5]; above 50 µM in test [6]. In addition, the TGI in test [7] is above 50 µM.
For the compound `Nc1ccc2c(SCCSc3c4ccccc4nc4cc(N)ccc34)c3ccccc3nc2c1`, the TGI in test [1], in test [8], in test [3], in test [4], in test [5] and in test [6] was above 100 µM each time. This compound had a TGI in test [7] above 100 µM.
In the case of `Cc1cn(C2CC(F)C(CO)O2)c(=O)[nH]c1=O` (stereo not drawn), the GI50 in test [8] is above 100 µM; in test [2], above 100 µM; in test [3], above 100 µM; in test [4], 98.8 µM; in test [5], above 100 µM; in test [6], above 100 µM. For the same compound, in test [7], the GI50 is above 100 µM. The TGI in test [8], in test [2], in test [3], in test [4], in test [5] and in test [6] was above 100 µM each time. The same compound gave a TGI in test [7] above 100 µM.
For `CCCC1c2c(ccc3ccccc23)Oc2ccc3ccccc3c21`, the TGI in test [1], in test [8], in test [3], in test [4], in test [5] and in test [6] was above 100 µM each time. In addition, the TGI in test [7] came to 98.6 µM.
On to `C[C@@H]1C=C(CCCCCCCCCCC[C@H](O)[C@@H]2CCC(=O)O2)C(=O)O1`, for which the GI50 in test [1] was 24.5 µM; in test [8], 24.3 µM; in test [3], 14.5 µM; in test [4], 42.4 µM; in test [5], 23.6 µM; in test [6], 30.5 µM. For the same compound, the TGI in test [1] was 81.7 µM; in test [8] it was 60.2 µM; in test [3] it was 28.1 µM; in test [4] it was above 100 µM; in test [5] it was 65 µM; in test [6], 92.9 µM.
As to `C(=N\Nc1ccccn1)/c1ccccn1`, the GI50 in test [1] was 0.445 µM; in test [8] it was 0.483 µM; in test [2], 0.272 µM; in test [4] it was 0.563 µM; in test [5] it was 0.47 µM; in test [7], 6.17 µM. The TGI in test [1] is above 100 µM; in test [8] it was above 100 µM; in test [2], 2.53 µM; in test [4], above 100 µM; in test [5] it was above 100 µM; in test [6], above 100 µM. The compound further had a TGI in test [7] above 100 µM.
In the case of `C1CC[N-]CC1.C1CC[N-]CC1.C1CC[N-]CC1.C1CC[N-]CC1.[Cl][Rh][Cl]`, the GI50 in test [1] is 4.72 µM; in test [8] it was 4.09 µM; in test [3] it was 4.2 µM; in test [4], 7.6 µM; in test [5], 7.04 µM; in test [7], 3.2 µM. Besides, the TGI in test [1] stood at 23.8 µM; in test [8] it was 32.4 µM; in test [3], 18.9 µM; in test [4], 45.8 µM; in test [5] it was 21.8 µM; in test [7], 13.6 µM.
For the compound `CC(=O)O[C@H]1C(=O)[C@@]2(C)C(C(OC(=O)c3ccccc3)[C@]3(O)CC(OC(=O)[C@H](OC(=O)CCC(=O)O)C(NC(=O)c4ccccc4)c4ccccc4)C(C)=C1C3(C)C)C1(OC(C)=O)COC1C[C@@H]2OC(=O)CCC(=O)O` (stereo partly drawn), the TGI is above 100 µM in test [1]; 0.495 µM in test [8]; 0.868 µM in test [2]; above 100 µM in test [3]; above 100 µM in test [5]; above 100 µM in test [6]. For the same compound, the GI50 in test [8] is 0.189 µM.
With `O=Cc1c(-c2cc(O)ccc2O)nc2sccn12`, the GI50 was 18.8 µM in test [1]; 15.6 µM in test [8]; 15.8 µM in test [3]; 35.1 µM in test [4]; 5.05 µM in test [5]; 11.9 µM in test [6]. The GI50 in test [7] was 1.76 µM. In addition, the TGI in test [1] is 47 µM; in test [8], 34.2 µM; in test [3] it was 35.6 µM; in test [4] it was above 100 µM; in test [5] it was 20.5 µM; in test [6], 38.3 µM. The TGI in test [7] stood at 8.09 µM.
For the compound `O=c1c2ccccc2c2ccccc2c(=O)n1-c1cc2c3ccccc3ccc2c2ccccc12`, the TGI in test [1], in test [8], in test [3], in test [4], in test [5] and in test [6] was above 100 µM throughout. Moreover, the TGI in test [7] is above 100 µM.
For the compound `COCCn1cc(-c2csc(-c3c[nH]c4ccccc34)n2)c2cccnc21`, the GI50 in test [1] is 6.12 µM; in test [8], 0.863 µM; in test [3], 3.22 µM; in test [4], 3.19 µM; in test [5], 0.762 µM; in test [6], 6.81 µM. For the same compound, the TGI is above 100 µM in test [1]; 5.25 µM in test [8]; above 100 µM in test [3]; above 100 µM in test [4]; above 100 µM in test [5]; above 100 µM in test [6].
In the case of `O=C(O)c1ccc2c(c1)Cc1cc([N+](=O)[O-])ccc1-2`, the TGI in test [1], in test [8], in test [2], in test [3], in test [4] and in test [5] was above 100 µM in each case. For the same compound, the TGI in test [7] came out at 77.4 µM.
With `OCCCCC#Cc1ccccc1C#Cc1ccccc1`, the GI50 was 11.5 µM in test [1]; 13.7 µM in test [8]; 14.4 µM in test [3]; 13.2 µM in test [4]; 14.1 µM in test [6]; 15.9 µM in test [7]. Also, the TGI in test [1] was 23.8 µM; in test [8], 27.2 µM; in test [3], 28.6 µM; in test [4] it was above 100 µM; in test [6], 27.1 µM; in test [7], 37.7 µM.
